Experimental data reported in patent US10251865B2, “Method of activating regulatory T cells with alpha-2B adrenergic receptor agonists” (Allergan, Inc., priority 2010, dated 2019).

Tests used:
Type in all cases: in vivo
[1] = tested on: regulatory T cells and immune cells in the CNS; test: Flow cytometry of immune cells and Treg cells in PLP-induced EAE mice
Source text: The mouse model of experimental autoimmune encephalomyelitis (EAE) has been used extensively to understand the mechanisms underlying the immunopathogenesis of MS. […] Components of the immune system including T cells, macrophage, and antibodies are important contributors to myelin destruction in EAE mice. Further, inflammation also gives rise to multifocal regions demyelination culminating in clinical signs of neurologic dysfunction that include loss of tail tone, abnormal gait and partial-to-complete hind-limb paralysis. PLP-induced EAE model offers the ability to simultaneously investigate the pathogenic mechanisms of CNS inflammation and demyelination and MS-associated pain, a multi-targeted concept that we have optimized here at Allergan. Using sterile technique proteolipid protein myelin peptide (PLP) (139-159: […]) is mixed 1:1 with incomplete Freund's adjuvant (IFA) (Final concentration of 2 mg/ml PLP). 8-10 week old Female SJL mice (Taconic) are injected subcutaneously with 100 μl PLP/IFA (200 μg PLP/injection) on both the right and left hind-flank (day 0) using a 26G needle. […]
Mice were routinely visually scored for behavioral abnormalities on a scale from 0-5; 0-no abnormality, 1-partial loss of tail tonicity (partial limp tail), 2-loss of tail tonicity and hind-limb weakness 3-unsteady gait and partial hind-limb paralysis, 4-complete hind-limb paralysis and 5-moribund or dead. […] Allodynia was measured by the Von Frey hairs method as described earlier. […]
(§1) To determine surface expression of CD4 (Helper T cells), CD8 (killer T cells), CD25 (activated helper T cells and regulatory T cells), CD45 (macrophage and microglial cells) and F4/80 (macrophage and microglial cells) 5×10^5 cells/100 μL FACS buffer (PBS, 0.02% sodium azide [Sigma-Aldrich] and 2% bovine serum albumin) were incubated with appropriate antibodies from BD biosciences, Mountain View, Calif. […] Expression was analyzed (FACSCalibur with CellQuest software; BD Biosciences, Mountain View, Calif.).

[2] = tested on: goblet cells and T cells in the conjunctiva; test: Dry eye desiccating stress in mice, therapeutic mode, conjunctiva histology; settings: 3 mg/kg/day via osmotic minipump, mice previously exposed to blower, comparable to Cyclosporine A, FIG. 12
Source text: C57BL/6 (C57BL/6NTac) and B6.Cg/NTac-Foxn1nuNE9 were purchased from Taconic, Inc. (Germantown, N.Y.). Mice were used at 6-10 weeks of age. Animal studies approval was obtained from the Allergan Animal Care and Use Committee. All studies adhered to the Association for Research in Vision and Ophthalmology statement for the Use of Animals in Ophthalmic and Vision Research. As described in the literature dry eye was induced by treating mice with subcutaneous injections of scopolamine hydrobromide (0.5 mg/0.2 ml; Sigma-Aldrich, St. Louis, Mo.) three times a day alternating between the left and right flanks (Neiderkorn et al, 2006). Mice were placed in a cage containing perforated plastic screens on each side of the cage to permit airflow from fans (one fan on each side of the cage) for 16 hr/day in a hood (AirClean Systems, Raleigh, N.C.). Room humidity was kept below 40%. Desiccating stress (DS) was induced for 10 consecutive days. Spleens and cervical lymph nodes (CLN) were collected from mice subjected to DS and NS, and one donor-equivalent of either spleen or CLN CD4+ cells was transferred i.p. to syngeneic nude mice. One splenic equivalent of T cells was equal to 5×10^7 cells. Three days later samples were collected for analysis. For tear collection, 1.5 μL of PBS was placed on each eye, and then 1 μL of tear was collected from both eyes and placed in 8 μL of cytokine assay buffer (Beadlyte; Millipore, Billerica, Mass.). Buffer and tear fluid were collected by capillary action using a 1 μL volume glass capillary tube (Drummond Scientific, Broomhall, Pa.) that was placed in the tear meniscus of the lateral canthus. Samples were frozen at −80° C. until the time of assay. Histological analysis was done by staining […] samples with antibody to CD4 and H&E staining to quantify goblet cells and T cells in the conjunctiva. To test the compounds in a therapeutic mode, the animals were exposed to the desiccating stress for two weeks and then allowed to rest for 7 days in regular housing cages. The animals were then re-exposed to desiccating stress for an additional 7 days to mimic relapsing form of chronic dry eye disease. Drug treatment with Compound B was started 2 days before re-exposure to desiccating stress. In both the studies Compound B was dosed at 3 mg/kg/day. Adoptive transfer, tear cytokine analysis and histological analysis were performed as described above.

CD4+/CD25+ Treg cells = test: Treg cell frequency in lymphatic organs of SNL rats (flow cytometry); settings: SNL Rat Model of Allodynic Neuropathic Pain, FIG. 2
Experimental: The SNL (or Chung) Model in the rat is an accepted standard animal model of neuropathic pain and is thought to mimic the human causalgia condition with respect to symptoms (guarding behavior, mechanical allodynia) and alleviation by pharmacological agents. […] The SNL Model is performed by tightly ligating the L-5 and L-6 spinal nerves, which produces tactile allodynia or sensitivity to light touch as described (Kim and Chung, 1992). Male sprague-dawley rats (100-120 grams; Charles River, Wilmington, Mass.) were anesthetized through inhalation of an isoflurane/oxygen mix. The surgical site was shaved and prepared with betadine. An incision was made from the thoracic vertebra XIII toward down the sacrum. The muscle was separated from the spinal vertebra (left side) at the L4-S2 levels. […]
as §1

Row | Compound | frequency of regulatory T cells (CD4+CD25hiFoxP3+) in the spinal cord ([1]; flow cytometry on day 37, FIG. 7) | T cell infiltration into the conjunctiva [2] | goblet cell loss [2] | frequency of spleen CD4+ T cells that are CD4+/CD25+ Treg cells (CD4+/CD25+ Treg cells) | presence of immune cells in the CNS ([1]; flow cytometry at the end of the study, FIG. 5) | Treg number ([1]; mice immunized with proteolipid protein, 3 mg/kg/day by osmotic minipump, FIG. 3)
1 | Clc1cccc(CNC2=NCCN2)c1Cl [Compound C] | increased | significantly reduced | significantly reduced |  |  | 
2 | CCC1=CC(Cc2c[nH]cn2)CCC1 (centres unmarked) [Compound B] |  | significantly prevented | significantly prevented | Sustained increase | significantly reduced | selectively boosted
